Assays:
[1] = tested on: experimental allergic encephalomyelitis (EAE) model; assay: Experimental allergic encephalomyelitis (EAE) model, EAE scores; assay type: in vivo, Male C57BL/6 mice; conditions: MOG peptide-immunized mice; oral, 30 mg/kg in 0.5% MC, 10 ml/kg/administration, twice a day from post-immunization day 7; FIG. 1 and 2
[2] = molecular target: T1, Porcine kidney-derived DPP-IV (Sus scrofa, UniProt P22411); assay: DPPIV-inhibiting activity assay; assay type: biochemical; conditions: porcine kidney DPP-IV 10 mU/ml, Gly-Pro-p-nitroanilide 0.33 mM, 20 minutes, absorbance at 405 nm
T1 construct: Porcine kidney-derived DPP-IV was dissolved in a reaction buffer; from tissue; host or cells: porcine kidney
Procedure: DPPIV-Inhibiting Activity Assay
Porcine kidney-derived DPP-IV was dissolved in a reaction buffer (50 mM Tris-HCl (pH 7.4)/0.1% BSA) at a concentration of 10 mU/ml. After 110 μl of this solution had been combined with 15 μl of an agent, the mixture was incubated at room temperature for 20 minutes. 25 μl of 2 mM Gly-Pro-p-nitroanilide was added (to a final concentration of 0.33 mM) to the solution to initiate the enzyme reaction. The reaction time was 20 minutes. 25 μl of IN phosphoric acid solution was added to the reaction solution to quench the reaction.

T1 sequence (P22411 whole entry): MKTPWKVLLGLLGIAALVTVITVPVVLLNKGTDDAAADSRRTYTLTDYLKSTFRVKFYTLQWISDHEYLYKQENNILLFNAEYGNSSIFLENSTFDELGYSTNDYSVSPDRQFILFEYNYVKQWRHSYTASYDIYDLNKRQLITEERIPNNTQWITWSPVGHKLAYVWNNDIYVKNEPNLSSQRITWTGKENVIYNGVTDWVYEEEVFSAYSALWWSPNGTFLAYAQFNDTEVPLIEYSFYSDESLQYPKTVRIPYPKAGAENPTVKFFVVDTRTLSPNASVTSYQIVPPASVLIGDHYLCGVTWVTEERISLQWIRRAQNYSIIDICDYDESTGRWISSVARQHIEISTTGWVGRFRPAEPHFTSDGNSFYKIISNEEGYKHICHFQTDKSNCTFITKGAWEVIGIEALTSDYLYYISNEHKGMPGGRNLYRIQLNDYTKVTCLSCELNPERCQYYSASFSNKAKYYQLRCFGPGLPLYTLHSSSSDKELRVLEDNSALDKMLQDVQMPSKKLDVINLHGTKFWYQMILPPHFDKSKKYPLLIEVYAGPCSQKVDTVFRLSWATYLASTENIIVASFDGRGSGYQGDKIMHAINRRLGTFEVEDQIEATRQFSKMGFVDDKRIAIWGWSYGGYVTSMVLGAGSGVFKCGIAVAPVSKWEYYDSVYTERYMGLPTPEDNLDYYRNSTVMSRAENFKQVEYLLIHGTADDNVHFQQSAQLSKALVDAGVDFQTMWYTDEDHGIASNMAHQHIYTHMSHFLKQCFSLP

Compound | effect on development of EAE symptoms compared to control group (MC solution) [1] | IC50 [2] [nM]
CC#CCn1c(N2CCNCC2)nc2c1c(=O)n(C)c(=O)n2C [Compound 1X, 7-(2-butynyl)-1,3-dimethyl-8-(piperazin-1-yl)-3,7-dihydropurine-2,6-dione] | definite suppressing effects | 
CC#CCn1c(N2CCCC(N)C2)nc2cnn(C)c(=O)c21.O=C(O)C(F)(F)F (stereo not shown) [Example 120, 2-(3-Aminopiperidin-1-yl)-3-(2-butynyl)-5-methyl-3,5-dihydroimidazo[4,5-d]pyridazin-4-one trifluoroacetate] | definite suppressing effects | 
CC#CCn1c(N2CCNCC2)nc2nc(Oc3ccccc3C(N)=O)n(C)c(=O)c21 [Example 122, 2-[7-(2-Butynyl)-1-methyl-6-oxo-8-(piperazin-1-yl)-6,7-dihydro-1H-purin-2-yloxy]benzamide] | definite suppressing effects | 
Methyl 2-[7-(2-butynyl)-1-methyl-6-oxo-8-(piperazin-1-yl)-6,7-dihydro-1H-purin-2-yloxy]phenylacetate trifluoroacetate [Example 4] |  | 211
